From ChEMBL document CHEMBL5331060, “Bisindole natural products: A vital source for the development of new anticancer drugs” (Eur J Med Chem, 2022) come the findings set out here.

≈ marks a conversion by molar mass, not a printed value.

Type in all cases: functional, cell-based
Assay [1] concerns MCF7. The experiment in a line: Antiproliferative activity against human MCF7 cells assessed as inhibition of cell growth.
The subject of assay [2] is KB. Nature of the assay: Antiproliferative activity against vincristine-sensitive human KB cells assessed as inhibition of cell growth.
Assay [3] in a line: Antiproliferative activity against vincristine-resistant human KB cells assessed as inhibition of cell growth.
Assay [4] relates to A549. Nature of the assay: Antiproliferative activity against human A549 cells assessed as inhibition of cell growth.
The subject of a further assay is PC-3. Nature of the assay: Antiproliferative activity against human PC-3 cells assessed as inhibition of cell growth.
A further assay relates to HT-29. Nature of the assay: Antiproliferative activity against human HT-29 cells assessed as inhibition of cell growth.
The next assay deals with HCT-116. The experiment in a line: Antiproliferative activity against human HCT-116 cells assessed as inhibition of cell growth.
The next assay deals with MDA-MB-231. The experiment in a line: Antiproliferative activity against human MDA-MB-231 cells assessed as inhibition of cell growth.
Assay [5] can be described thus: Antiproliferative activity against vincristine-resistant human KB cells assessed as inhibition of cell growth incubated for 72 hrs by MTT assay. (Formazan colour is commonly taken as a measure of viable cells.)
The test system of assay [6] is A549. Nature of the assay: Antiproliferative activity against human A549 cells assessed as inhibition of cell growth incubated for 72 hrs by MTT assay. The settings on record: A549, 72 h, pooled result: one value given for 8 cell lines, strains, targets or settings.
The test system of assay [7] is PANC-1. The experiment in a line: Antiproliferative activity against human PANC-1 cells assessed as inhibition of cell growth incubated for 24 hrs by FMCA assay. The settings on record: PANC-1, 24 h.
A further assay has as its system B16. Nature of the assay: Antiproliferative activity against B16 cells assessed as inhibition of cell growth by MTT assay. Conditions: Mus musculus.
In another assay the test system is NCI-H460. Nature of the assay: Antiproliferative activity against human NCI-H460 cells assessed as inhibition of cell growth by MTT assay.
A further assay relates to CCRF-CEM. The experiment in a line: Antiproliferative activity against human CCRF-CEM cells assessed as inhibition of cell growth by MTT assay.
Assay [8] relates to KB. Nature of the assay: Antiproliferative activity against drug-sensitive human KB cells assessed as inhibition of cell growth.
For a further assay, the system named is Jurkat. The experiment in a line: Antiproliferative activity against human Jurkat cells assessed as inhibition of cell growth.
The subject of another assay is SK-BR-3. Nature of the assay: Antiproliferative activity against human SK-BR-3 cells assessed as inhibition of cell growth incubated for 48 hrs by MTT assay. Conditions: SK-BR-3, 48 h.
The subject of assay [9] is PANC-1. Nature of the assay: Antiproliferative activity against human PANC-1 cells assessed as inhibition of cell growth incubated for 48 hrs by MTT assay. Conditions: PANC-1, 48 h.
The test system of another assay is SMMC-7721. Nature of the assay: Antiproliferative activity against human SMMC-7721 cells assessed as inhibition of cell growth incubated for 48 hrs by MTT assay. Conditions: SMMC-7721, 48 h.
A further assay deals with HL-60. Nature of the assay: Antiproliferative activity against human HL-60 cells assessed as inhibition of cell growth incubated for 48 hrs by MTT assay. Conditions: HL-60, 48 h.
Assay [10] deals with MCF7. The experiment in a line: Antiproliferative activity against human MCF7 cells assessed as inhibition of cell growth incubated for 48 hrs by MTT assay. Conditions: MCF7, 48 h.
Assay [11] concerns A549. The experiment in a line: Antiproliferative activity against human A549 cells assessed as inhibition of cell growth incubated for 48 hrs by MTT assay. The settings on record: A549, 48 h.
Another assay has as its system 4T1. The experiment in a line: Antiproliferative activity against mouse 4T1 cells assessed as inhibition of cell growth incubated for 48 hrs by MTT assay. Conditions: 4T1, 48 h.

As usually defined, the IC50 is the concentration needed to halve the response being measured. For `C/C=C1/CN2CC[C@]34C(=C(CN5c6ccccc6[C@@]67CCN8CCC[C@]9(CC[C@]56[C@H](C(=O)OC)C9)[C@H]87)[C@H]1C[C@H]23)Nc1ccccc14`, the half-inhibitory concentration (IC50) (in the assay on MCF7 [1]; in the assay on KB [2]; in assay [3]; in the assay with A549 [4]; in the assay with PC-3; in the assay with HT-29) was 1300 nM in each case. The IC50 in the assay with HCT-116 and in the assay with MDA-MB-231 was 1300 nM in each case.
`O=C1NC(=O)c2c1c1c3ccccc3[nH]c1c1[nH]c3cc(O)ccc3c21`: the IC50 in assay [5] was found to be 2.28 µg/mL (≈ 6.68 µM).
For the compound `c1ccc2c(C3(c4c[nH]c5ccccc45)CCCCC3)c[nH]c2c1`, in the assay on A549 [6], the IC50 was 18700 nM.
Consider `O=C1NCc2c1c1c3ccc(O)cc3[nH]c1c1[nH]c3ccccc3c21`, for which, in the assay on PANC-1 [7], the IC50 came to 68000 nM.
`COC(=O)c1[nH]cc2c1[C@]1(CN(C)c3ccc(Cl)cc31)c1[nH]c3ccc(Cl)cc3c1-2`: the figures for the IC50 in the assay on B16, in the assay with NCI-H460 and in the assay with CCRF-CEM were 5 µg/mL (≈ 11.4 µM), 12 µg/mL (≈ 27.4 µM) and 4 µg/mL (≈ 9.13 µM), respectively.
With `C/C=C1/CN2CC[C@]34c5ccccc5N5[C@H](C(=O)OC)[C@H]1C[C@H]2[C@@]53Oc1c4cc2c(c1O)C(=O)O[C@@]13[C@@H]4C[C@H]5/C(=C\C)CN4CC[C@@]21c1ccccc1N3[C@@H]5C(=O)OC`, the IC50 in the assay with KB [8] was 3.2 µg/mL (≈ 4.03 µM); in assay [3] it was 2 µg/mL; in the assay on Jurkat it was 3.7 µg/mL (≈ 4.65 µM).
Consider `CCC12CCCN3CC[C@@]4(OC)c5cc([C@@H]6C[C@@]7(CC)CCCN8CCc9c(n6c6ccccc96)[C@H]87)c(O)cc5N(CCC1)C324` (stereo not given in full), for which the IC50 in the assay on SK-BR-3, in the assay on PANC-1 [9], with SMMC-7721, in the assay on HL-60, in the assay with MCF7 [10] and with A549 [11] was 500 nM in each case.
Take `C/C=C1/CN(C)[C@H]2Cc3c([nH]c4ccccc34)[C@H](c3cc4[nH]c5c(c4cc3OC)CCN3C[C@@H]4C[C@H](CC)[C@H]3[C@@]5(C(=O)OC)C4)C[C@@H]1C2C(=O)OC` (stereo not given in full): the IC50 stood at 1420 nM in the assay on 4T1 and 990 nM with MCF7 [10].
